Data on four compounds can be found in the NIST ThermoML archive (doi:10.1016/j.jct.2012.05.010).

± gives the expanded uncertainty stated by the source.

This data set is described as follows: refractive index (Na D-line) (dimensionless). Conditions: 293.1 K; 101.33 kPa; Liquid; Standard Abbe refractometry.
As to `CCCCn1cc[n+](C)c1.F[P-](F)(F)(F)(F)F` [1-butyl-3-methylimidazolium hexafluorophosphate], the refractive index was determined as 1.3803 ± 0.0005.
`CCCCCCCCCCCCCC` [tetradecane]: the refractive index is on record as 1.4289 ± 0.0004.
The same measure for `CCCCCCCCCCCC` [dodecane]: 1.422 ± 0.0004.
On to `CCCc1ccccc1` [propylbenzene], for which the refractive index worked out at 1.4915 ± 0.0004.

Broadly, the refractive index is a measure of how strongly the sample bends light.
